What all share (assay): Dundee kinase screen re-test (standard format and 4 hour pre-incubation)
Common to all, as to format: biochemical

The target of experiment [1] is MST4 (Homo sapiens, UniProt Q9P289). To be noted: MST4, 0.5µM. As to the method: (§1) Prior to determining its cellular activity, we carried out a screen to assess its selectivity against a panel of 131 protein kinases under conditions that would not distinguish between a reversible or irreversible mode of action. […] These 13 kinases and 29 additional kinases, selected for their known sensitivity to other inhibitors within the purine series, were then tested in a modified screening format in which the assay was repeated following a 4-hr pre-incubation (Table S3B). […] However, conformational flexibility around the active site may promote such an interaction with a residue from another part of the structure ([Martin et al., 2012]).
(§2) Table S3, Related to Figure 4. NCL-0006300 protein kinase selectivity. […]
(§3) Dundee protein kinase screen (Bain et al., 2007). […]
(§4) (B) Selected kinases were re-tested in the Dundee kinase screen against NU6300 at a single concentration of 0.5 µM both in the standard assay format and following a 4 hour pre-incubation in the presence of NU6300. Kinases which have very low activity after the 4 hour incubation so that results might not be wholly reliable are boxed in salmon. Kinases where the activity after a 4 hour pre-incubation is < 50% that in the standard assay format are highlighted in red.

Experiment [2] has as its target GSK3b (Homo sapiens, UniProt P49841). On the procedure: as §1, §2, §3, §4
Experiment [3] deals with T1, TBK1 (Homo sapiens, UniProt Q9UHD2).
T1 sequence (Q9UHD2 1-729): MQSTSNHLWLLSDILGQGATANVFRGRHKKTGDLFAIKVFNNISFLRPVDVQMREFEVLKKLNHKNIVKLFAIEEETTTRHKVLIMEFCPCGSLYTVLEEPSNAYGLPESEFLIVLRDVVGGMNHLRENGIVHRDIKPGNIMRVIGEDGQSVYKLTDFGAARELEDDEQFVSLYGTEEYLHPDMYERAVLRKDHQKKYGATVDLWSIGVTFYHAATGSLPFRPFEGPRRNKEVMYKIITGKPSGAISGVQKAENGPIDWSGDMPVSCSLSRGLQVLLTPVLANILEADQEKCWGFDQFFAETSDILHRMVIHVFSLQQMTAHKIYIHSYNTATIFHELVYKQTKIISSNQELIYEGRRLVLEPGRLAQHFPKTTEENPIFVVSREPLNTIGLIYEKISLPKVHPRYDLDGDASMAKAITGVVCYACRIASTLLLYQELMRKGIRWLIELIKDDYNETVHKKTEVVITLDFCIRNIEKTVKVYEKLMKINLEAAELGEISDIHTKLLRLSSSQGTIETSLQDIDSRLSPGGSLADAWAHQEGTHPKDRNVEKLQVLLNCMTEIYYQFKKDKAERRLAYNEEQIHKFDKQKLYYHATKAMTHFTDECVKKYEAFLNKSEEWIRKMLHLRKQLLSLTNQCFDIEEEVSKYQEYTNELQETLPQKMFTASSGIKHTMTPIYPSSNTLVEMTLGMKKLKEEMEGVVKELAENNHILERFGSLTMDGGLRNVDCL
To be noted: TBK1, 0.5µM. On the procedure:
as §1, §2, §3, §4

For experiment [4], the target named is T2, TAO1 (Homo sapiens, UniProt Q7L7X3).
T2 sequence (Q7L7X3 1-1001): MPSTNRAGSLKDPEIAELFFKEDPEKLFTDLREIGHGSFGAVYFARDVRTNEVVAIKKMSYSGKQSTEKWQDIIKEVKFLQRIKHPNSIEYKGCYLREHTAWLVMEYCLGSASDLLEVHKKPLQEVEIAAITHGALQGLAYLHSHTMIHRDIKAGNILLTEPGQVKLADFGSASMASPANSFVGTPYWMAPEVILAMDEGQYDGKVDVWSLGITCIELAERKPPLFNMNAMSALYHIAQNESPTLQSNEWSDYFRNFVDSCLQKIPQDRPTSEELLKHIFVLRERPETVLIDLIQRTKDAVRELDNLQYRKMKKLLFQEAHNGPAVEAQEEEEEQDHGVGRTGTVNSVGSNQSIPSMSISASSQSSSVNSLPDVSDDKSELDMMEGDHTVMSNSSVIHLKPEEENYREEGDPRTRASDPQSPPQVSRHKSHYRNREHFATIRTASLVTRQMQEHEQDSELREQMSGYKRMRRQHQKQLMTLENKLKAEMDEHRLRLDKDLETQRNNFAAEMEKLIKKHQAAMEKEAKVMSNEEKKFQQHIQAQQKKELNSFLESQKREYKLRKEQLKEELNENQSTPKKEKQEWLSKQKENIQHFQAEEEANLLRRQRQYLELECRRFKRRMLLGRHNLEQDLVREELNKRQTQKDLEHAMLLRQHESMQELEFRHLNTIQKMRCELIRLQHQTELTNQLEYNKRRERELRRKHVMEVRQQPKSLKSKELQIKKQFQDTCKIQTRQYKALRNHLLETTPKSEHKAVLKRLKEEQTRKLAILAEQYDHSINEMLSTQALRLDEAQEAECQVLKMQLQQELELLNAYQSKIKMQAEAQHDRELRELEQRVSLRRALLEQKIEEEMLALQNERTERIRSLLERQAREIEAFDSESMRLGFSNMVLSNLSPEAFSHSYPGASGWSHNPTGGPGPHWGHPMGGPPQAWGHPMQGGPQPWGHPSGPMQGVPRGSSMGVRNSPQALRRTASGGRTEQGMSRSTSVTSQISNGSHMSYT
To be noted: TAO1, 0.5µM. As to the method:
as §1, §2, §3, §4

The target in experiment [5] is T3, TSSK1 (Homo sapiens, UniProt Q9BXA7).
T3 sequence (Q9BXA7 1-367): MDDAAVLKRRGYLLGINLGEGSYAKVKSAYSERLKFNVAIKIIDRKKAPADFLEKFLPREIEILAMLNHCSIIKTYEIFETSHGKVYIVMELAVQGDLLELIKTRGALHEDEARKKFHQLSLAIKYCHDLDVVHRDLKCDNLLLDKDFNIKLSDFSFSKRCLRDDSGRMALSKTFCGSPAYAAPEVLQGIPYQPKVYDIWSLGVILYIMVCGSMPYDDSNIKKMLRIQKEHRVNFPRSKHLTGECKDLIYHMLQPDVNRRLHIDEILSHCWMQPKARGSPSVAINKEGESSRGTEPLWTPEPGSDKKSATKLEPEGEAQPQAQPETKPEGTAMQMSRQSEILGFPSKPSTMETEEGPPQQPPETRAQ
To be noted: TSSK1, 0.5µM. On the procedure:
as §1, §2, §3, §4

[6] abbreviates: 4hr RT preincubation, read-out: %Remaining activity at 0.5µM NU6300 - 4hr RT preincubation.
[7] abbreviates: usual format, read-out: %Remaining activity at 0.5µM NU6300 - Usual assay format.

Where two headings read alike, the source gives them in different places.

GSK3b, sequence (P49841 whole entry): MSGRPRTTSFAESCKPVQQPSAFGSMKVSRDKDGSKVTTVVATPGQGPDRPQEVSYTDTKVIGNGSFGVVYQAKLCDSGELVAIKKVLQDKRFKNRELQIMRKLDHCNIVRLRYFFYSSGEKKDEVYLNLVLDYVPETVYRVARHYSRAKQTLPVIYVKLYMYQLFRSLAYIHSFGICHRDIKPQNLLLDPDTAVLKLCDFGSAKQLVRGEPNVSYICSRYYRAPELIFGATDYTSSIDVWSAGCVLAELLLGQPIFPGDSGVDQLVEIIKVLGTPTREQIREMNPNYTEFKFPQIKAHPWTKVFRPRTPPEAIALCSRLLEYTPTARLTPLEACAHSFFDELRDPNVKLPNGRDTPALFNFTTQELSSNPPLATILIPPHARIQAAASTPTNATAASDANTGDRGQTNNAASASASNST
MST4, sequence (Q9P289 whole entry): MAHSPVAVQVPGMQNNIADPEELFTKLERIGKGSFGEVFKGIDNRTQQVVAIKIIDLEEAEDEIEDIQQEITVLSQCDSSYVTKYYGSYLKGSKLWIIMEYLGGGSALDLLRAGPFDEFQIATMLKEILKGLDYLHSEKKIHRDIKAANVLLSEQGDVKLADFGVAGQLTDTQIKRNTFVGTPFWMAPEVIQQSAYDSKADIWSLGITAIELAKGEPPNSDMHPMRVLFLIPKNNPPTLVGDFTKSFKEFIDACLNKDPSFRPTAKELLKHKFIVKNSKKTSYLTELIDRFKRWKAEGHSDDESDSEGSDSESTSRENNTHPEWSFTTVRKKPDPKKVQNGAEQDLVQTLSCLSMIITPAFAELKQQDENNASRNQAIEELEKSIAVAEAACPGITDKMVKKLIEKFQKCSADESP

The remaining activity is the share of the control activity or signal that is left under treatment. For `C=CS(=O)(=O)c1ccc(Nc2nc(OCC3CCCCC3)c3nc[nH]c3n2)cc1` [NU6300, 6-(cyclohexylmethoxy)-N-(4-(vinylsulfonyl)phenyl)-9H-purin-2-amine], the remaining activity at 0.5 µM in experiment [1] (setting [6]) amounted to 94%; in experiment [1] (setting [7]), 74%; in experiment [2] (setting [6]) it was 81%; in experiment [2] (setting [7]) it was 80%; in experiment [3] (setting [6]) it was 75%; in experiment [3] (setting [7]) it was 62%. Moreover, the remaining activity at 0.5 µM came out at 20% in experiment [4] (setting [6]), 27% in experiment [4] (setting [7]), 67% in experiment [5] (setting [6]) and 53% in experiment [5] (setting [7]).
